Values after ≈ are worked out from the molar mass of the structure shown. Like-named read-outs stand apart in the source and are kept apart here.
Key:
DU145 = test: Cancer cell proliferation assay, DU145; format: cell-based; settings: Homo sapiens, DU-145
MCF-7 = test: MTT cancer cell proliferation assay, MCF-7; format: cell-based, human; settings: Homo sapiens
In short: (§1)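 Cells seeded at 1×10^4/well and exposed 48 h to 0.01-100 μM compound (0.01, 0.1, 1, 5, 10, 100 μM) or DMSO. MTT added for a further 4 h, formazan dissolved in DMSO and OD read at 550 nm; quadruplicate wells per concentration. MCF-7 is ER-positive; MDA-MB-231 ER-negative, triple-negative.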

[1] = system: xenograft tumors (breast cancer MDA-MB-231); test: MDA-MB-231 xenograft tumor growth in mice; format: in vivo; settings: 5.0 mg/kg ip; triple-negative MDA-MB-231 xenograft; p<0.0001
Text: (§2) FIG. 14. […] Values are mean±SE of three independent experiments.
(§3) In pilot in vivo studies, this compound was further evaluated for its anticancer activity in suppression of tumor growth in the triple-negative breast cancer MDA-MB-231 xenograft model.

Panc-1 = test: Cancer cell proliferation assay, Panc-1; format: cell-based; settings: Homo sapiens, PANC-1
Description: (§4) In Vitro Determination of Effects of Synthesized Diterpenoids on Cancer Cell Proliferation. […] Then MTT solution was removed, and 150 μL of DMSO was added to each well. Absorbance of all wells was determined by measuring OD at 550 nm after a 10 min incubation on a 96-well GlowMaxate absorbance reader (Promega, Madison, Wis.). Each individual compound was tested in quadruplicate wells for each concentration.

[2] = system: breast, pancreatic, and prostate cancer cell lines; test: Anti-proliferation effects against cancer cell lines; format: cell-based, human; settings: summary of Tables 1 and 2
Description: (§5) In Vitro Determination of Effects of Synthesized Diterpenoids on Cancer Cell Proliferation. Breast cancer cell lines MCF-7, MDA-MB-231, […] and MCF/ADR were seeded in 96-well plates at a density of 1×10^4 cells/well and treated with DMSO and 0.01, 0.1, 1, 5, 10, and 100 μM of individual compound for 48 h, and then 20 μL of 3-(4,5-dimethylthiazol-2-yl)-2,5-diphenyltetrazolium bromide (MTT) (5 mg/mL in PBS) was added to each well and further incubated for another 4 h. Then MTT solution was removed, and 150 μL of DMSO was added to each well. Absorbance of all wells was determined by measuring OD at 550 nm after a 10 min incubation on a 96-well GlowMaxate absorbance reader (Promega, Madison, Wis.). Each individual compound was tested in quadruplicate wells for each concentration.

AsPC1 = test: Cancer cell proliferation assay, AsPC1; format: cell-based; settings: Homo sapiens, ASPC1
Description: as §4

[3] = Body weight and tolerability in xenograft mice; settings: 5.0 mg/kg ip
Text: as §2, §3

MDA-MB-231 = test: MTT cancer cell proliferation assay, MDA-MB-231; format: cell-based, human; settings: Homo sapiens
In short: as §1

MCF-7/ADR [4] = test: MTT growth inhibition, drug-resistant MCF-7/ADR; format: cell-based; settings: Homo sapiens, NCI/ADR-RES, 24 h, Table 1d; drug-resistant breast cancer cells; mean ± SE of three experiments
HMEC cells = test: Toxicity in HMEC cells; format: cell-based
MDA-MB-231 cells = test: Colony formation in MDA-MB-231 cells; format: cell-based
leukemia = settings: 15 mg/kg; Zhou et al., Blood 2007; cited from earlier work
MCF-7/ADR [5] = test: MTT growth inhibition, drug-resistant MCF-7/ADR; format: cell-based, human; settings: Homo sapiens, NCI/ADR-RES, 48 h, Table 3; adriamycin-resistant; MTT 48 h; mean ± SE of three experiments
Description: as §5
(§6) The growth inhibitory effects of the newly generated pyran-fused diterpenoids were evaluated in four breast cancer cell lines MCF-7 (ER-positive), MDAMB-231 (ER-negative and triple-negative), MDA-MB-468 (ER-negative and triple-negative) as well as MCF-7/ADR (adriamycin-resistant) using MTT assays as described in the Experimental Section. The capability of these new molecules to inhibit the growth of cancer cells was summarized in Table 3 and compared with that of adriamycin and 1 spontaneously.

Aqueous solubility = format: physicochemical; settings: water; compound as such; read-out: Aqueous solubility
MDA-MB-468 = test: MTT cancer cell proliferation assay, MDA-MB-468; format: cell-based, human; settings: Homo sapiens, MDA-MB-468, 48 h, Table 3; pyran-fused diterpenoids; MTT 48 h; mean ± SE of three experiments
Description: as §5, §6

[6] = system: acute myeloid leukemic cells; settings: Zhou et al., Blood 2007; read-out: IC50, induction of mitochondrial apoptosis; cited from earlier work
[7] = Table 1a, prostate cancer, read-out: IC50 (μM) DU145
[8] = Table 2b, mean of at least three experiments, read-out: Effect on proliferation DU145 (IC50)
[9] = MCF7, Table 1a, breast cancer, read-out: IC50 (μM) MCF-7
[10] = MCF7, Table 2b, mean of at least three experiments, read-out: Effect on proliferation MCF-7 (ER positive) (IC50)
[11] = Table 1a, pancreatic cancer, read-out: IC50 (μM) Panc-1
[12] = Table 2b, mean of at least three experiments, read-out: Effect on proliferation Panc-1 (IC50)
[13] = Table 1a, pancreatic cancer, read-out: IC50 (μM) AsPC1
[14] = Table 2b, mean of at least three experiments, read-out: Effect on proliferation AsPC1 (IC50)
[15] = MDA-MB-231, Table 1a, breast cancer, read-out: IC50 (μM) MDA-MB-231
[16] = MDA-MB-231, Table 2b, mean of at least three experiments, read-out: Effect on proliferation MDA-MB-231 (ER negative) (IC50)
[17] = MCF7, Table 1c, dienone analogues, mean ± SE of three experiments, read-out: Antiproliferative effect MCF-7 (IC50)
[18] = MCF7, Table 2a, A-ring modified analogues, read-out: IC50 (μM) MCF-7
[19] = MDA-MB-231, Table 1c, dienone analogues, mean ± SE of three experiments, read-out: Antiproliferative effect MDA-MB-231 (IC50)
[20] = MDA-MB-231, Table 2a, A-ring modified analogues, read-out: IC50 (μM) MDA-MB-231

C=CCNc1nc2c(s1)CC(C)(C)[C@H]1[C@H](O)[C@@]3(O)OC[C@@]21[C@@H]1CC[C@H]2C(=C)C(=O)[C@]13[C@@H]2O [CYD-6-18, (5aR,6S,7S,7aR,10S,12aS,12bR,15R)-2-(allylamino)-6,7,15-trihydroxy-5,5-dimethyl-9-methylene-5,5a,6,7,10,11,12,12a-octahydro-4H-7,12b-(epoxymethano)-7a,10-methanocyclohepta[7,8]naphtho[1,2-d]thiazol-8(9H)-one]
IC50 (DU145; [7]): 1.18 µM
IC50 (DU145; [8]): 1.2 µM
IC50 (MCF-7; [9]): 0.18 µM
IC50 (MCF-7; [10]): 0.2 µM
Inhibition of xenograft tumor growth compared to oridonin at the same dose [1]: much better effect in inhibiting tumor growth
IC50 (Panc-1; [11]): 1.1 µM
IC50 (Panc-1; [12]): 1.1 µM
IC50 values, anti-proliferation effects against cancer cell lines [2]: low micromolar to nanomolar
IC50 (AsPC1; [13]): 1.05 µM
IC50 (AsPC1; [14]): 1.1 µM
Loss of body weight [3]: no significant loss of body weight
Tolerability during the experiments [3]: tolerated
IC50 (MDA-MB-231; [15]): 0.18 µM
IC50 (MDA-MB-231; [16]): 0.2 µM

C=C1C(=O)[C@@]23[C@@H]4OC(C)(C)OC25OC[C@]2(C=CC(=O)C(C)(C)[C@H]2[C@@H]5O)[C@@H]3CC[C@@H]14 [CYD-6-86, (3S,3aR,3a^1R,6aR,7S,7aS,11aR,11bS)-7-hydroxy-5,5,8,8-tetramethyl-15-methylene-3,3a,7,7a,8,11b-hexahydro-1H-6a,11a-(epoxymethano)-3,3a^1-ethanophenanthro[1,10-de][1,3]dioxine-9,14(2H)-dione]
IC50 (MCF-7/ADR [4]): 6.02 ± 1.28 µM
IC50 (MCF-7; [17]): 0.98 ± 0.19 µM
IC50 (MCF-7; [18]): 0.86 µM
Inhibition of xenograft tumor growth compared to oridonin at the same dose [1]: much more efficacious in suppressing xenograft tumor growth
IC50 (Panc-1; Table 2a, A-ring modified analogues, read-out: IC50 (μM) Panc-1): 6.49 µM
Toxicity in HMEC cells (HMEC cells): lower toxicity
Antiproliferative and colony formation inhibitory effects in MDA-MB-231 cells (MDA-MB-231 cells): potent antiproliferative and colony formation inhibitory effects
IC50 values, anti-proliferation effects against cancer cell lines [2]: low micromolar to nanomolar
IC50 (AsPC1; Table 2a, A-ring modified analogues, read-out: IC50 (μM) AsPC1): 0.81 µM
Loss of body weight [3]: no significant loss of body weight
Tolerability during the experiments [3]: well tolerated
IC50 (MDA-MB-231; [19]): 5.6 ± 1.06 µM
IC50 (MDA-MB-231; [20]): 4.39 µM

C=C1C(=O)[C@]23[C@H](O)[C@H]1CC[C@H]2[C@@]12COC3(O)[C@@H](O)[C@@H]1C(C)(C)CC[C@@H]2O [Oridonin]
Anti-leukemia activities in murine models (leukemia): substantial anti-leukemia activities with a low side-effect
IC50 (MCF-7/ADR [4]): > 30 µM
IC50 (DU145; [7]): 14.2 µM
IC50 (DU145; [8]): 14.2 µM
IC50 (MCF-7; MCF7, 48 h, Table 3, pyran-fused diterpenoids, MTT 48 h, mean ± SE of three experiments, read-out: IC50 (μM) MCF-7): 4.36 ± 1.41 µM
IC50 (MCF-7; [9]): 6.64 µM
IC50 (MCF-7; MCF7, Table 1b, triazole substituted analogues, mean of three experiments, read-out: IC50 (μM) MCF-7): 6.6 µM
IC50 (MCF-7; [17]): 4.36 ± 1.41 µM
IC50 (MCF-7; [18]): 6.64 µM
IC50 (MCF-7; [10]): 6.6 µM
IC50 (MCF-7/ADR [5]): 34.8 ± 2.54 µM
IC50 (Panc-1; [11]): 13.4 µM
IC50 (Panc-1; [12]): 15.6 µM
solubility (Aqueous solubility): 1290 µg/mL (≈ 3.54 mM)
IC50 (AsPC1; [13]): 34.5 µM
IC50 (AsPC1; [14]): 19.3 µM
IC50 (MDA-MB-468): 5.33 ± 1.36 µM
IC50 [6]: 2 µM
IC50 (MDA-MB-231; MDA-MB-231, 48 h, Table 3, pyran-fused diterpenoids, MTT 48 h, mean ± SE of three experiments, read-out: IC50 (μM) MDA-MB-231): 28 ± 1.4 µM
IC50 (MDA-MB-231; [15]): 29.4 µM
IC50 (MDA-MB-231; MDA-MB-231, Table 1b, triazole substituted analogues, mean of three experiments, read-out: IC50 (μM) MDA-MB-231): 29.4 µM
IC50 (MDA-MB-231; [19]): 28 ± 1.4 µM
IC50 (MDA-MB-231; [20]): 29.4 µM
IC50 (MDA-MB-231; [16]): 29.4 µM

Reference: patent US9725460B2, “Oridonin analogs, compositions, and methods related thereto” (THE BOARD OF REGENTS OF THE UNIVERSITY OF TEXAS SYSTEM, priority 2013, dated 2017)
